In patent publication US12553889B2, “Small molecules targeting the intrinsically disordered structural ensemble of α-synuclein protect against diverse α-synuclein mediated dysfunctions” (The Regents of the University of California, priority 2019, dated 2026):
“Also recorded” adds a separate entry of the source.

Experiments:
[1] = test system: H4 SL1 & SL2 neuroglioma cell line; assay: Cell model of αSyn aggregate formation (phospho-S129 αSyn staining, ARRAYSCAN); assay type: cell-based; conditions: 100 μM and 150 μM, 45 hours
Description: Next, 583854 was tested for impact on αSyn aggregation in a cell model of αSyn aggregate formation. Split Gaussian luciferase tagged αSyn overexpression was induced in the H4 SL1 & SL2 neuroglioma cell line by tetracycline addition (Moussaud, S., et al. (2015)). αSyn aggregates were visualized by staining fixed (4% PFA) cells with the S129 phosphorylated αSyn specific antibody 11A5 at 1 μg/ml (Anderson, J. P. et al. (2006)) using a green fluorescently labelled secondary antibody. Nuclei were stained with a blue Hoescht nuclear dye. Uninduced cells contained no phospho-αSyn staining and induced cells contain abundant phospho-αSyn aggregates. The cells were imaged for nuclei (blue, diffuse circular staining as in the Uninduced sample)) and phospho-αSyn (green punctate staining) on an ARRAYSCAN automated imaging platform (FIG. 23A), αSyn aggregates were quantitated using the ARRAYSCAN spot-detector algorithm. Cells were induced for αSyn by tetracycline addition and 583854 was added 3 to 4 hours later. At 48 hours after tetracycline addition the cells are washed in PBS and […] with 4% PFA.

[2] = test system: A53T αSyn; assay: Dopaminergic neuron viability assay, A53T αSyn adenovirus transduced primary midbrain cultures; assay type: cell-based, rat
Description: Primary midbrain cultures were prepared and dopaminergic neuronal viability in the presence and absence of αSyn was assessed as previously described and repeated herein. Primary midbrain cultures were prepared from embryonic day 17 embryos of Sprague-Dawley rats using methods reviewed and approved by the Purdue Animal Care and Use Committee as described previously. After dissection, the cells were plated into a poly-L-lysine-treated 48-well plate at a density of 163,500 cells per well. Four days later, the cells were treated with cytosine arabinofuranoside (AraC) (20 μM) for 48 hours to inhibit the growth of glial cells. The cultures were used for measurements of dopaminergic neuron viability at 7 days in vitro. […] In order to determine the viability of dopaminergic neurons, MAP2- and TH-positive neurons were counted in 10 to 15 randomly chosen observation fields in a blinded manner using a Nikon TE2000-U inverted fluorescence microscope (Nikon Instruments, Melville NY) with a 20× objective. In the control conditions, and in conditions where the compound was neuroprotective, typically 500 to 1,300 MAP2-positive neurons were counted, a range that corresponds to 20 to 50 TH-positive neurons. The data were expressed as the ratio of the TH-positive neurons to the MAP2-positive neurons. […]

Row | Structure (SMILES) | impact on αSyn aggregates (phospho-αSyn) [1] | effect on A53T αSyn neurotoxicity (TH-positive/MAP2-positive neurons) ([2]; 10 μM) | effect on A53T αSyn neurotoxicity (TH-positive/MAP2-positive neurons) ([2]; 60 μM)
1 | CNC(=O)c1cc(O)ccc1O [Compound 583854, 2,5-dihydroxy-N-methylbenzamide] | reduced αSyn aggregates |  | 
2 | CNC(=O)c1cc(O)ccc1N [Compound 576755, 2-amino-5-hydroxy-N-methylbenzamide] |  | a trend towards a similar inhibitory effect | suppressed A53T αSyn neurotoxicity; also recorded: alleviates loss of dopaminergic neurons
